Experimental findings from patent US12258327B2, “5-membered heteroaryl-containing aminopyridine compounds as EGFR inhibitors” (YUHAN CORPORATION, priority 2021, dated 2025) are described below.

Structures are written as SMILES. Read-outs that look alike come from different tables or passages of the source.

Test [1] deals with EGFR L858R/T790M/C797S (Homo sapiens, UniProt P00533, C797S/L858R/T790M). Briefly: Biochemical EGFR kinase assay (Lance Ultra TR-FRET), triple mutant L858R/T790M/C797S. In outline:
(§1)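 Step 1: compound in kinase buffer, 0.003–10 μM. Step 2: kinase reaction 1 h at room temperature. Step 4: TR-FRET read at 615/665 nm; IC50 calculated.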
For orientation: TR-FRET usually uses a lanthanide donor and a delayed reading to cut background.

The target of test [2] is EGFR del19/C797S (Homo sapiens, UniProt P00533, C797S/DEL746-750). The test can be described thus: Biochemical EGFR kinase assay (Lance Ultra TR-FRET), double mutant del19/C797S. In outline: as §1
Test [3] deals with EGFR L858R/C797S (Homo sapiens, UniProt P00533, C797S/L858R). The test can be described thus: Biochemical EGFR kinase assay (Lance Ultra TR-FRET), double mutant L858R/C797S. In outline:
as §1

Test [4] has as its target EGFR del19/T790M/C797S (Homo sapiens, UniProt P00533, C797S/DEL746-750/T790M). The test can be described thus: Biochemical EGFR kinase assay (Lance Ultra TR-FRET), triple mutant del19/T790M/C797S. Summed up:
as §1

The target of test [5] is EGFR wildtype (WT) (Homo sapiens, UniProt P00533). Briefly: Biochemical EGFR kinase assay (Lance Ultra TR-FRET), wildtype. In outline:
as §1

[6] abbreviates: Km ATP, read-out: IC50 L858R/T790M/C797S (nM) Km ATP.
Where [7] appears, read: Km ATP, read-out: IC50 del19/C797S (nM) Km ATP.
The mark [8] stands for this setting: Km ATP, read-out: IC50 L858R/C797S (nM) Km ATP.
[9] abbreviates: Km ATP, read-out: IC50 del19/T790M/C797S (nM) Km ATP.
Setting [10] is: Km ATP, read-out: IC50 WT (nM) Km ATP.
Setting [11] is: Km ATP, read-out: IC50 L858R/T790M/C797S, Km ATP.
The mark [12] stands for this setting: Km ATP, read-out: IC50 del19/C797S, Km ATP.
[13] abbreviates: Km ATP, read-out: IC50 L858R/C797S, Km ATP.
The mark [14] stands for this setting: Km ATP, read-out: IC50 del19/T790M/C797S, Km ATP.
The mark [15] stands for this setting: Km ATP, read-out: IC50 WT, Km ATP.

Chain of EGFR del19/T790M/C797S (P00533 with tags, fused parts or gaps DEL746-750/T790M/C797S): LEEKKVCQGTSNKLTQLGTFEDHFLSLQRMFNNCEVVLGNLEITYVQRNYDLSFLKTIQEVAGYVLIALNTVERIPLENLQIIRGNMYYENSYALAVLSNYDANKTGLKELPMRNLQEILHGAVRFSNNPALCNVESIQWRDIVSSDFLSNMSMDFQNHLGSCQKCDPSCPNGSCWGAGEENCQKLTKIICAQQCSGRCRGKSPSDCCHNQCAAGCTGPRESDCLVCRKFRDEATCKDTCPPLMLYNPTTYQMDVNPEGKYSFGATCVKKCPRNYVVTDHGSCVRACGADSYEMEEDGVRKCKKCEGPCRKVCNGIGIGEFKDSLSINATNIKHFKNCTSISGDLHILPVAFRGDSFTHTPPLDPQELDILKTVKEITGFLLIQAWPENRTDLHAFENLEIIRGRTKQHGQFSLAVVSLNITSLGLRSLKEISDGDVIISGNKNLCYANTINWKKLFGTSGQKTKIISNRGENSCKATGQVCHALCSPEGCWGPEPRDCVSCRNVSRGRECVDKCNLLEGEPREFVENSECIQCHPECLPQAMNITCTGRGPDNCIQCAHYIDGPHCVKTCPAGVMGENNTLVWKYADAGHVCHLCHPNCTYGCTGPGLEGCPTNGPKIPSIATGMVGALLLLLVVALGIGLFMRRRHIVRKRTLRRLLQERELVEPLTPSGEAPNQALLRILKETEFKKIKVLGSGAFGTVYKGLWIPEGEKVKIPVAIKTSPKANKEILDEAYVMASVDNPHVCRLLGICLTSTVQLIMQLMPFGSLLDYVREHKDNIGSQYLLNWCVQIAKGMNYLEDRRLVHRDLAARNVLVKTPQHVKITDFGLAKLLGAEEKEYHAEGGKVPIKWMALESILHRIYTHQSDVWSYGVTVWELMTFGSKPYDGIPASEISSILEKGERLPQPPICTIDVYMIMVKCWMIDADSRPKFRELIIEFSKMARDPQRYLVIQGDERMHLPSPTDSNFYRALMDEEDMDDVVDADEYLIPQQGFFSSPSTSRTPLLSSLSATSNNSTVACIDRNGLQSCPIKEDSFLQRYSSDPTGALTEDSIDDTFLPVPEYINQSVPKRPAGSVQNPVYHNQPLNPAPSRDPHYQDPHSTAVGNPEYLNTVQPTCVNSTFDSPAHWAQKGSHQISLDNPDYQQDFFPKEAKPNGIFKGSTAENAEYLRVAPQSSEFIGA
Chain of EGFR wildtype (WT) (P00533 25-1210): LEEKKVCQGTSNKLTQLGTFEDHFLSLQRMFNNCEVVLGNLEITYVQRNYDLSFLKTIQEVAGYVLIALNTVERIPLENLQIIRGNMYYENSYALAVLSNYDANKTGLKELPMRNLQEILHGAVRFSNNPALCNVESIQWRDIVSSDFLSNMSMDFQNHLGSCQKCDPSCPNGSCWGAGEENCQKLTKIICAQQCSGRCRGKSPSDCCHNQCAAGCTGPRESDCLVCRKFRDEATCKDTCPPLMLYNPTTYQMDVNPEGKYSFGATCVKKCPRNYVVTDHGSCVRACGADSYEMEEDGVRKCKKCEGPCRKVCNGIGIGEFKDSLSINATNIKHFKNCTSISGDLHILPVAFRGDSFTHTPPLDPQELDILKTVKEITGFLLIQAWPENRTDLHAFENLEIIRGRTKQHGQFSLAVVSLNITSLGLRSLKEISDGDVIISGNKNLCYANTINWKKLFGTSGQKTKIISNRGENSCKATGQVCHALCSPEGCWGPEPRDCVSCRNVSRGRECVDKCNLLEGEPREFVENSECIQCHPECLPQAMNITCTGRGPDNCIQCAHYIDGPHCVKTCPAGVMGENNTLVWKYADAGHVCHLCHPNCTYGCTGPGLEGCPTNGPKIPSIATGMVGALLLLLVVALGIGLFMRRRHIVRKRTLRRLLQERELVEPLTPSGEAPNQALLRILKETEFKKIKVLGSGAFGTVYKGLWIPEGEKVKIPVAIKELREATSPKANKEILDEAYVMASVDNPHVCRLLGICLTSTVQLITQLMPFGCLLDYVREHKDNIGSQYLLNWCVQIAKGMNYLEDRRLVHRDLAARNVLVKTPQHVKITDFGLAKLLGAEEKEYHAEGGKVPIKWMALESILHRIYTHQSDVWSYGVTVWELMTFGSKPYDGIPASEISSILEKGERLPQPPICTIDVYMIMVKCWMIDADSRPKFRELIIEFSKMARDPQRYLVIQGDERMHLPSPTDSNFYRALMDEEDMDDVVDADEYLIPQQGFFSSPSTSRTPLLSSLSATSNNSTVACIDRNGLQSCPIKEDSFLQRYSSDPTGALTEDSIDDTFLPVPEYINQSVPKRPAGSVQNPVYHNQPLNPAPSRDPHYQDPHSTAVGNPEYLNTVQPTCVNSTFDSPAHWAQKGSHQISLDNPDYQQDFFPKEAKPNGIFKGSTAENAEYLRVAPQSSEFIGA
Chain of EGFR L858R/C797S (P00533 25-1210 C797S/L858R): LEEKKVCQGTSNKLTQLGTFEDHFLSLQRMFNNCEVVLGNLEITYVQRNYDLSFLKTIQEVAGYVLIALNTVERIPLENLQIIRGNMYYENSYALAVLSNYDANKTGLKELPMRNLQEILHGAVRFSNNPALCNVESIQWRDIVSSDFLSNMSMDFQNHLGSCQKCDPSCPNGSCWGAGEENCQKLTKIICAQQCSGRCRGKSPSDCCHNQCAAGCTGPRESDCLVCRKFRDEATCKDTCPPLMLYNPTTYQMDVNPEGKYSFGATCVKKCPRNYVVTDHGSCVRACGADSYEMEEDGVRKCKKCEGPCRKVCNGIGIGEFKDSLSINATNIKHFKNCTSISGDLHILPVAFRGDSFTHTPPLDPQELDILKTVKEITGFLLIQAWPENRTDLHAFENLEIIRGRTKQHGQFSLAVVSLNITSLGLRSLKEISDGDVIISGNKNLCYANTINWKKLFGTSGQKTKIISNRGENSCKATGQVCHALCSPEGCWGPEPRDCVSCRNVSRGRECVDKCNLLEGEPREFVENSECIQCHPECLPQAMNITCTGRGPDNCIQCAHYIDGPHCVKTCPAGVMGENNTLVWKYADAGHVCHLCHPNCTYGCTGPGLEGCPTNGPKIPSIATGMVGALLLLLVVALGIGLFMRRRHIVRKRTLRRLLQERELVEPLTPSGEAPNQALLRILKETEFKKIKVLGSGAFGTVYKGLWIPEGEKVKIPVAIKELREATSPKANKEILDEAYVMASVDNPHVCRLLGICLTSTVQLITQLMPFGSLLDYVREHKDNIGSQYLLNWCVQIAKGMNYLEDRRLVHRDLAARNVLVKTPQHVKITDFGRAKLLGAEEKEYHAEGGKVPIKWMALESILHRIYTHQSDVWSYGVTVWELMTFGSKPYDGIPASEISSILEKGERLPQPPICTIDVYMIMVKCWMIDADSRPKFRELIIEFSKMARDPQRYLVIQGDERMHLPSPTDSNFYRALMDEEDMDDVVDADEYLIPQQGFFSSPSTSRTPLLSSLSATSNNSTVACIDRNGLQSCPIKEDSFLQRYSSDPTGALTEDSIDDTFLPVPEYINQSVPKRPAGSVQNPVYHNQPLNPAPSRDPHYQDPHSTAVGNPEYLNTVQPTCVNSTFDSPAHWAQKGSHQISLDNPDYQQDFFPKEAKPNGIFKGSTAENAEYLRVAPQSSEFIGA
Chain of EGFR L858R/T790M/C797S (P00533 25-1210 T790M/C797S/L858R): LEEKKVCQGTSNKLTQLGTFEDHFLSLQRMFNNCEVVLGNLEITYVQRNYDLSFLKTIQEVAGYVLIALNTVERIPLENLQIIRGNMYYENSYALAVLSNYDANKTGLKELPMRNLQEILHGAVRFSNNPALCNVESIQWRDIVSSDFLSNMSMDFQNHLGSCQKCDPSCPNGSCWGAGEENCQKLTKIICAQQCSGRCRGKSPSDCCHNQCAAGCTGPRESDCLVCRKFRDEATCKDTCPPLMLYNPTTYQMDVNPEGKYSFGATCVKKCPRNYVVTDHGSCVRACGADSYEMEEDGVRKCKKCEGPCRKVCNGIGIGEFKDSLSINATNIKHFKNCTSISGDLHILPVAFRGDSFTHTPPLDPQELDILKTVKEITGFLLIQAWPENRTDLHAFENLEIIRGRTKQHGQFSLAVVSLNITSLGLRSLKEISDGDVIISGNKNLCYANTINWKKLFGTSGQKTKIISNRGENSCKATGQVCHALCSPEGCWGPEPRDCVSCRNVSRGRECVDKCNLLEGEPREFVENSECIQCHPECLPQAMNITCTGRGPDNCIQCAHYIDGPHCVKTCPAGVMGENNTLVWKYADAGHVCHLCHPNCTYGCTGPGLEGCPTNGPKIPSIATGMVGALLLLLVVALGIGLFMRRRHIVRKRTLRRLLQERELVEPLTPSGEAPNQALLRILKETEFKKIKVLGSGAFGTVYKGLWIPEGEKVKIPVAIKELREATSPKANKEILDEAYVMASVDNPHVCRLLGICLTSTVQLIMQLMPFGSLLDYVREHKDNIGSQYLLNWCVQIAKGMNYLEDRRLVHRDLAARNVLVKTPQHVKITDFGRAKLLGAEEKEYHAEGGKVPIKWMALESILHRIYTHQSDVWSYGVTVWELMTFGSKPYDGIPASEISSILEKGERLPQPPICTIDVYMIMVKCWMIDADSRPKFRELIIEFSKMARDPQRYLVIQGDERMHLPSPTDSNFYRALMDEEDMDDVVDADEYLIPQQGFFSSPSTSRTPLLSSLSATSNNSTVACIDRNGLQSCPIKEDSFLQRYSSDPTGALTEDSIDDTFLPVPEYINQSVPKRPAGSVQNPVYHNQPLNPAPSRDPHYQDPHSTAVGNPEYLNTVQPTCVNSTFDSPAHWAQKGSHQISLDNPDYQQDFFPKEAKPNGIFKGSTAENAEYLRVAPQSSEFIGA

Consider `O=S(=O)(C1CC1)n1cc(-c2nccc(Nc3cc(N[C@H]4CC[C@](O)(C(F)(F)F)CC4)c(-c4ccn(C(F)F)n4)cn3)n2)cn1` [Example 11, (1s,4s)-4-((2-((2-(1-(Cyclopropylsulfonyl)-1H-pyrazol-4-yl)pyrimidin-4-yl)amino)-5-(1-(difluoromethyl)-1H-pyrazol-3-yl)pyridin-4-yl)amino)-1-(trifluoromethyl)cyclohexan-1-ol], for which the IC50 is 21.8 nM in test [1] (read-out: IC50 L858R/T790M/C797S (nM) 100 μM ATP, 100 μM ATP); 553 nM in test [2] (read-out: IC50 del19/C797S (nM) 100 μM ATP, 100 μM ATP); 267 nM in test [3] (read-out: IC50 L858R/C797S (nM) 100 μM ATP, 100 μM ATP); 8.6 nM in test [4] (read-out: IC50 del19/T790M/C797S (nM) 100 μM ATP, 100 μM ATP); over 10000 nM in test [5] (read-out: IC50 WT (nM) 100 μM ATP, 100 μM ATP).
Regarding `CC(O)C(C)(C)Nc1cc(Nc2ccnc(-c3cnn(S(=O)(=O)C4CC4)c3)n2)ncc1-c1ccn(C(F)F)n1` (stereo not drawn) [Example 7, 3-((2-((2-(1-(Cyclopropylsulfonyl)-1H-pyrazol-4-yl)pyrimidin-4-yl)amino)-5-(1-(difluoromethyl)-1H-pyrazol-3-yl)pyridin-4-yl)amino)-3-methylbutan-2-ol], the IC50 in test [1] (IC50 L858R/T790M/C797S (nM) 100 μM ATP, 100 μM ATP) was 6 nM; in test [2] (IC50 del19/C797S (nM) 100 μM ATP, 100 μM ATP), 281 nM; in test [3] (IC50 L858R/C797S (nM) 100 μM ATP, 100 μM ATP), 246 nM; in test [4] (IC50 del19/T790M/C797S (nM) 100 μM ATP, 100 μM ATP) it was 2.6 nM; in test [5] (IC50 WT (nM) 100 μM ATP, 100 μM ATP), over 10000 nM.
Consider `COc1ccc(-c2nccc(Nc3cc(N[C@H]4CC[C@@](C)(O)CC4)c(-c4ccn(C(F)F)n4)cn3)n2)cn1` [Example 165, (1s,4s)-4-((5-(1-(Difluoromethyl)-1H-pyrazol-3-yl)-2-((2-(6-methoxypyridin-3-yl)pyrimidin-4-yl)amino)pyridin-4-yl)amino)-1-methylcyclohexan-1-ol], for which the IC50 was found to be 2.3 nM in test [1] (setting [6]); 1260 nM in test [2] (setting [7]); 884 nM in test [3] (setting [8]); 3 nM in test [4] (setting [9]); 6830 nM in test [5] (setting [10]).
In the case of `Cc1cn(-c2cnc(Nc3ccnc(-c4cnn(S(=O)(=O)C5CC5)c4)n3)cc2N[C@H]2CC[C@@](C)(O)CC2)nc1C(F)(F)F` [Example 186, (1s,4s)-4-((2-((2-(1-(Cyclopropylsulfonyl)-1H-pyrazol-4-yl)pyrimidin-4-yl)amino)-5-(4-methyl-3-(trifluoromethyl)-1H-pyrazol-1-yl)pyridin-4-yl)amino)-1-methylcyclohexan-1-ol], the IC50 stood at 0.4 nM in test [1] (setting [6]); 32.9 nM in test [2] (setting [7]); 30.4 nM in test [3] (setting [8]); 1.3 nM in test [4] (setting [9]); 166 nM in test [5] (setting [10]).
On to `Cn1nc(-c2nnc(Nc3ccnc(-c4cnn(S(=O)(=O)C5CC5)c4)n3)cc2N[C@H]2CC[C@@](C)(O)CC2)cc1C(F)(F)F` [Example 373, (1s,4s)-4-((6-((2-(1-(Cyclopropylsulfonyl)-1H-pyrazol-4-yl)pyrimidin-4-yl)amino)-3-(1-methyl-5-(trifluoromethyl)-1H-pyrazol-3-yl)pyridazin-4-yl)amino)-1-methylcyclohexan-1-ol], for which the IC50 in test [1] (setting [11]) stood at 3 nM; in test [2] (setting [12]) it was 663 nM; in test [3] (setting [13]), 226 nM; in test [4] (setting [14]), 0.5 nM; in test [5] (setting [15]), 714 nM.
As for `CC1(O)CCC(Nc2cc(Nc3ccnc(N4CCC(F)(F)C(O)C4)n3)ncc2-c2ccn(C(F)F)n2)CC1` (stereo not drawn) [Example 350, 1-(4-((5-(1-(Difluoromethyl)-1H-pyrazol-3-yl)-4-(((1s,4s)-4-hydroxy-4-methylcyclohexyl)amino)pyridin-2-yl)amino)pyrimidin-2-yl)-4,4-difluoropiperidin-3-ol], the IC50 in test [1] (setting [11]) was found to be 2.6 nM; in test [2] (setting [12]), 95.1 nM; in test [3] (setting [13]) it was 117 nM; in test [4] (setting [14]), 4.2 nM; in test [5] (setting [15]), 261 nM.
